# Assay results taken from patent publication US20040053962A1, “Methods for inhibiting proliferation and inducing apoptosis in cancer cells” (priority 2003, published 2004).
# How the values were obtained:
# [1] = test system: HPAF pancreatic cancer cell line; assay: [3H]-thymidine incorporation (DNA synthesis), HPAF; format: cell-based; conditions: for proliferation (thymidine incorporation), % control / proliferation, % control (time course): mean±SEM
# Experimental: (§1) Cell culture. The following pancreatic cancer cell lines were used: MiaPaCa-2 and PANC-1 (poorly-differentiated); Capan-1 and Capan-2 (well-differentiated); and HPAF and AsPC-1 (pleomorphic). These were purchased from American Type Culture Collection (Rockville, Md.). PANC-1 and MiaPaCa-2 were grown in DMEM media; HPAF and AsPC-1 were grown in MEM media; and Capan-1 and Capan-2 were grown in-McCoy's media. Media were supplemented with 10% FBS, and the cells were grown as monolayers in a humidified atmosphere of […] and 5% CO2 at 37° C. The cells were regularly seeded into 75 cm^2 flask with media changed every other day. For experiments, cells were grown to 80% confluence, digested with trypsin-EDTA, and plated either in 12 or 24-well plates at a concentration of 50,000/ml, as appropriate.
# (§2) DNA synthesis by [^3H]-Thymidine incorporation. Cells were plated in 12 or 24-well plates. After reaching 70% confluence, they were incubated in serum-free media for 24 hours, which was then replaced with fresh serum-free media with or without the appropriate concentration of leukotriene B4 receptor antagonist LY293111 (62.5-1000 nM), LTB4 (100-400 nM), or both. After the appropriate period of culture, cellular DNA synthesis was assayed by adding 0.5 μCi/well of [^3H]-methyl-thymidine and incubating for another 2 hours. Then, the cells were washed twice with PBS, fixed with 10% trichloroacetic acid (“TCA”) for 30 minutes, and solubilized by adding 0.4 M NaOH to each well. Radioactivity, indicating incorporation of ^3H-thymidine into DNA, was measured by adding a scintillation cocktail and counting on a scintillation counter (LKB RackBeta, Wallac, Turku, Finland)
# [2] = test system: AsPC-1 pancreatic cancer cell line; assay: [3H]-thymidine incorporation (DNA synthesis), AsPC-1; format: cell-based, human; conditions: mean±SEM; for proliferation (thymidine incorporation), % control: 24 hours
# Experimental: as §1, §2
# [3] = test system: PANC-1 pancreatic cancer cell line; assay: [3H]-thymidine incorporation (DNA synthesis), PANC-1; format: cell-based; conditions: mean±SEM; for proliferation (thymidine incorporation), % control: 24 hours
# Experimental: as §1, §2
# [4] = test system: MiaPaCa-2 pancreatic cancer cells; assay: Cell proliferation assay (cell number, Coulter counter); format: cell-based; conditions: 500 nM for 24, 48, and 72 hours (FIG. 2)
# Experimental: as §1
# Cell proliferation assay. Pancreatic cancer cells were seeded into 24-well microplates and incubated at 37° C. […] At the end of each time period, the cells were trypsinized to produce a single cell suspension, and the cell number in each well was determined using a Zi-Coulter Counter (Luton, Bedfordsire, United Kingdom).
# [5] = test system: MiaPaCa-2 pancreatic cancer cells; assay: Morphological changes by phase-contrast microscopy, MiaPaCa-2; format: cell-based; conditions: MiaPaCa-2, 250 nM, as early as 4 hours after treatment; interpreted as reflecting apoptosis
# Experimental: Morphological changes using light microscope. Pancreatic cancer cells grown in 75 cm^2 flasks were treated with different concentrations of LY293111 for different periods of time. They were then viewed by phase-contrast microscopy, and photographs were taken.
# MiaPaCa-2 cells [6] = assay: DNA fragmentation assay (agarose gel), MiaPaCa-2; format: cell-based; conditions: MiaPaCa-2, 250, 500 and 1000 nM for 48 hours; no ladder in control cells
# Experimental: DNA fragmentation assay. For analysis of DNA fragmentation by agarose gel electrophoresis, treated pancreatic cancer cells were detached from 75 cm^2 flask with trypsin-EDTA, washed twice with PBS, resuspended in 1 ml lysis buffer (25 mM EDTA, 10 mM Tris, 0.5% Triton X-100, and 1% SDS), and freeze-thawed at −80° C. overnight. Then, an equal volume of PEG/NaCl stock solution was added to the lysates to give a final concentration of 0.25% PEG and 1 M NaCl, and the tubes were centrifuged at 13,200 g at 4° C. for 30 minutes. The supernatants containing fragmented small molecular weight DNA were then incubated with RNAse A (0.3 mg/ml) at 37° C. for one hour and then with […] proteinase K (10 mg/ml) for three hours. Samples were then extracted with phenol-chloroform and precipitated with 70% ethanol overnight. The pellets containing DNA were then resuspended in […] of TE buffer, subjected to electrophoresis on a 1.8% agarose gel containing ethidium bromide ([…]), visualized by UV illumination, and analyzed using a Molecular Analyst Gel Documentation system (Bio-rad Laboratories, Hercules, Calif.).
# MiaPaCa-2 cells [7] = assay: TUNEL assay (flow cytometry), MiaPaCa-2; format: cell-based; conditions: control 1.5%
# Experimental: TUNEL assay. Apoptosis was measured by flow cytometry using a terminal deoxynucleotidyl transferase-mediated deoxyuridine triphosphate nick-end labeling (“TUNEL”) assay. Cells were treated with LY293111 for the appropriate period of time, then digested with trypsin-EDTA, washed with ice-cold PBS twice, and fixed in 10% paraformaldehyde on ice for 20 minutes. Cells were then washed with PBS, permeabilized with 70% ethanol for at least 4 hours, washed again with PBS and incubated with 2.5 units of terminal deoxynucleotidyl transferase (TdT enzyme) and 100 pmol Br-dUTP in DNA labeling solution for one hour at 37° C. Cells were then rinsed twice, resuspended in 0.1 ml fluorescein labeled anti-BrdU antibody solution in the dark for 30 minutes. Then 0.5 ml propidium iodide/RNase A solution was added, and the cells analyzed by flow cytometry at 488 nm excitation.
# [8] = test system: Bcl-2 in MCF-7 breast cancer cells; assay: Bcl-2 expression by western blotting; format: cell-based; conditions: MCF-7, LY293111 500 nM
# [9] = test system: pancreatic cancer cell lines; assay: Proliferation of pancreatic cancer cell lines (summary statement); format: cell-based
# Experimental: as §1
# DNA synthesis by [^3H]-Thymidine incorporation. Cells were plated in 12 or 24-well plates. After reaching 70% confluence, they were incubated in serum-free media for 24 hours, which was then replaced with fresh serum-free media with or without the appropriate concentration of leukotriene B4 receptor antagonist LY293111 (62.5-1000 nM), LTB4 (100-400 nM), or both. […] Radioactivity, indicating incorporation of ^3H-thymidine into DNA, was measured by adding a scintillation cocktail and counting on a scintillation counter (LKB RackBeta, Wallac, Turku, Finland)
smiles,measurement,setting,value
"CCCc1c(OCCCOc2cc(O)c(-c3ccc(F)cc3)cc2CC)cccc1Oc1ccccc1C(=O)O [LY293111, 2-(2-propyl-3-(3-(2-ethyl-4-(4-fluorophenyl)-5-hydroxyphenoxy)propoxy)-phenoxy)benzoic acid]",decrease of proliferation,"[1]; HPAF (FIG. 6B), LY293111 250 nM, 24 hours",50%
same,proliferation with combination of LTB4 and LY293111,"[1]; HPAF, 250 nM LY293111 + 100 nM LTB4, 24 hours",restored to almost the control level
same,"proliferation (thymidine incorporation), % control","[1]; HPAF, LY293111 62.5 nM, 24 hours",103.6 ± 21.8 % control
same,"proliferation (thymidine incorporation), % control","[1]; HPAF, LY293111 125 nM, 24 hours",97.6 ± 24.5 % control
same,"proliferation (thymidine incorporation), % control","[1]; HPAF, LY293111 250 nM, 24 hours",49.3 ± 9.0 % control
same,"proliferation, % control (time course)","[1]; HPAF, LY293111 500 nM, 6 h",67.5 ± 11.6 % control
same,"proliferation, % control (time course)","[1]; HPAF, LY293111 500 nM, 12 h",35.7 ± 8.9 % control
same,"proliferation, % control (time course)","[1]; HPAF, LY293111 500 nM, 24 h",12.4 ± 3.3 % control
same,"proliferation (thymidine incorporation), % control","[1]; HPAF, LY293111 500 nM, 24 hours",10.3 ± 3.0 % control
same,"proliferation (thymidine incorporation), % control","[1]; HPAF, LY293111 1000 nM, 24 hours",2.3 ± 1.4 % control
same,"proliferation (thymidine incorporation), % control","[2]; AsPC-1, LY293111 62.5 nM",90.6 ± 4.6 % control
same,"proliferation (thymidine incorporation), % control","[2]; AsPC-1, LY293111 125 nM",72.8 ± 5.4 % control
same,"proliferation (thymidine incorporation), % control","[2]; AsPC-1, LY293111 250 nM",44.5 ± 7.7 % control
same,"proliferation, % control (time course)","[2]; AsPC-1, LY293111 500 nM, 6 h",65.8 ± 7.7 % control
same,"proliferation, % control (time course)","[2]; AsPC-1, LY293111 500 nM, 12 h",44.7 ± 4.1 % control
same,"proliferation, % control (time course)","[2]; AsPC-1, LY293111 500 nM, 24 h",16.7 ± 2.1 % control
same,"proliferation (thymidine incorporation), % control","[2]; AsPC-1, LY293111 500 nM",18.4 ± 6.9 % control
same,"proliferation (thymidine incorporation), % control","[2]; AsPC-1, LY293111 1000 nM",7.3 ± 1.2 % control
same,"proliferation (thymidine incorporation), % control","[3]; PANC-1, LY293111 62.5 nM",89.4 ± 4.4 % control
same,"proliferation (thymidine incorporation), % control","[3]; PANC-1, LY293111 125 nM",65.2 ± 3.8 % control
same,"proliferation, % control (time course)","[3]; PANC-1, LY293111 500 nM, 6 h",60.2 ± 6.5 % control
same,"proliferation, % control (time course)","[3]; PANC-1, LY293111 500 nM, 12 h",48.9 ± 5.3 % control
same,"proliferation, % control (time course)","[3]; PANC-1, LY293111 500 nM, 24 h",13.6 ± 1.0 % control
same,"proliferation (thymidine incorporation), % control","[3]; PANC-1, LY293111 500 nM",12.4 ± 3.1 % control
same,"proliferation (thymidine incorporation), % control","[3]; PANC-1, LY293111 1000 nM",5.6 ± 1.0 % control
same,effect on cell number,[4],inhibition
same,morphological changes (phase-contrast microscopy),[5],marked morphological changes
same,DNA fragmentation (apoptosis),MiaPaCa-2 cells [6],distinctive DNA ladder
same,apoptosis (TUNEL),"MiaPaCa-2 cells [7]; MiaPaCa-2, 250 nM LY293111 for 24 hours",12.6%
same,apoptosis (TUNEL),"MiaPaCa-2 cells [7]; MiaPaCa-2, 500 nM LY293111 for 24 hours",18.6%
same,Bcl-2 expression (western blot),[8],inhibited expression
same,inhibition at 0.25 µM,[9]; LY293111 250 nM,≥ 50%
same,inhibition at 1 µM,[9]; LY293111 1000 nM,> 95%
